Source: PMC9025336 (Antibiotics, 2022)
In brackets after ≈: the same amount, converted by molar mass. Peptide text beside a SMILES is read from it. * marks the point of attachment. Orn(α-tetramethylguanidino) = CN(C)C(=N[C@@H](CCCN)C(=O)*)N(C)C

Columns and labels:
[1] = system: E. coli BL21 (DE3) sbmA::Tn10^Cm + psbmA_A31G/G219T; type: cell-based, Escherichia coli
Method: (§1) The minimal inhibitory concentrations (MIC) were determined at least twice in triplicate using a liquid broth microdilution assay in sterile 96-well plates and a total volume of 100 μL per well. Aqueous peptide solutions were serially 2-fold diluted in 25% MHBII or 33% TSB medium in a volume of 50 µL. An overnight culture was diluted in 25% MHBII or 33% TSB medium to 1.5 × 10^7 CFU/mL, and an aliquot of 50 μL was added to each well. The final cell count in each well was 7.5 × 10^6 CFU/mL. The plates were incubated at 37 °C for 20 ± 2 h. The turbidity of each well was measured at a wavelength of 600 nm. The MIC was defined as the lowest peptide concentration where the turbidity was identical to medium only.
(§2) E. coli strain BL21(DE3) was randomly mutagenized by Tn10 insertion using the lambda phage lysate λNK1324 carrying a chloramphenicol resistance and grown on LB agar plates in the presence of chloramphenicol (15 µg/mL) at 30 °C overnight. The resistant colonies were transferred to 25% MHBII agar plates containing Api137 (32 or 64 µg/mL) and incubated again at 37 °C overnight. Genomic DNA was isolated by a Monarch® Genomic DNA purification kit (New England Biolabs, Frankfurt am Main, Germany) from the presumed double-resistant strains, and the sequences flanking the transposon insertion were determined by arbitrary primed PCR using arbitrary primer ARB6 and Tn10 transposon-specific primer IS10-R complementary to the IS10 element of Tn10 transposon. The first round of amplification included six cycles of denaturation (95 °C, 30 s), annealing (30 °C, 30 s), and extension (72 °C, 90 s), followed by 30 cycles of denaturation (95 °C, 30 s), annealing (45°C, 30 s), and extension (72 °C, 2 min), as well as a final extension (72 °C, 6 min). The second round of amplification used arbitrary primer ARB2 and primer IS10-R. The PCR consisted of 30 cycles of denaturation (95 °C, 30 s), annealing (52 °C, 30 s), and extension (72 °C, 2 min), followed by a final extension step (72 °C, 6 min). PCR products were purified with the NucleoSpin® Gel and a PCR cleanup kit (Macherey-Nagel, Düren, Germany) and sequenced using primer IS10-R (Eurofins MWG Operon, Ebersberg, Germany), and the corresponding protein was identified in a sequence database (UniProt and NCBI, 2021).

[2] = system: E. coli BL21 (DE3) sbmA::Tn10^Cm + psbmA; type: cell-based, Escherichia coli
Method: as §1, §2

[3] = E. coli Rosetta pLysS lysate, protein ~0.5 g/L; 37 °C; RP-HPLC UV 214 nm
Method: (§3) Peptides (7.5 µg) were mixed with lysates of E. coli Rosetta pLysS or E. coli BW25113 (protein concentration ~0.5 g/L) and incubated on an orbital shaker (37 °C, 750 rpm). After 0, 4, 8 and 24 h, aliquots were taken in duplicate or triplicate, and trichloroacetic acid was added to achieve a final concentration of 3% (v/v). Samples were incubated on ice (10 min) and centrifuged (13,000× g, 5 min). The supernatant was neutralized with aqueous sodium hydroxide (1 mol/L) and stored at −20 °C. Samples were separated on an ACQUITY arc system (Waters GmbH, Eschborn, Germany) using a Jupiter C18 column (ID: 2 mm). Elution was achieved using a linear aqueous acetonitrile gradient containing 0.1% (v/v) formic acid. The absorbance was recorded on a 2489 UV/VIS detector at 214 nm (Waters GmbH), and mass spectra were acquired online with an ion trap mass spectrometer equipped with an electrospray ionization source (ESI-IT-MS, Esquire HCT, Bruker Daltonics, Billerica, MA, USA). Peptide recoveries and the corresponding metabolites were calculated based on the peak areas (UV) of the initial peptide peak area at 0 min.

in vitro = settings: E. coli BW25113 lysate
Method: as §3

[4] = system: 70S ribosome, ribosomal binding site of Api88; test: Fluorescence polarization competition with cf-Api88; design: species or system Escherichia coli; settings: Figure S3, twice in triplicate
Method: Ki was determined for ribosome extracts using cf-labeled and unlabeled peptides in ribosome preparation buffer. Black 384-well plates were prepared as described above. Unlabeled peptides or antibiotics (20 µL, 656 µmol/L) were added and 2-fold serially diluted in 23 wells in ribosome preparation buffer. A ribosome solution was prepared by adjusting the ribosome concentration to ~90% of the upper Kd plateau obtained for the cf-labeled peptide to be studied and added to each well (10 µL). After incubation (28 ± 1 °C, 90 min), the cf-labeled peptide (10 µL, 80 nmol/L) was added and incubated (28 ± 1 °C, 90 min). The fluorescence polarization was measured on a […] microplate reader in the top read position (λexc = 485 nm, λem = 535 nm) in triplicate on at least two different days. Data were fitted to a nonlinear, dose–response logistical transition equation [y= y0 + a/(1 + (x/x0)b)] using the Levenberg–Marquardt algorithm, with the half-maximal inhibition constants (IC50) represented by the x0 coefficients (GraphPad Prism for Windows v. 5.02, San Diego, CA, USA). Inhibition constants, Ki, were calculated as described by Mathias and Jung.
Pept ide Concent r at ion [ nM]
Figure S3. Fluorescence polarization assay testing Api88 an d Api137 in competition with cf-Api88 and cf-Api137, respectively, for the corresponding ribosomal binding sites. Experiments were done twice in triplicates. […]

[5] = system: E. coli BL21 (DE3) RIL ribosome extract; settings: values published for E. coli BL21 (DE3) RIL ribosome extract; read-out: Ki, cf-Onc112; cited from earlier work
From the text: Table 2 Antibacterial activities, dissociation (Kd), and inhibition constants (Ki) of ribosome binding obtained for all PrAMPs included in the current study for E. coli strains BW25113 (BW) and Rosetta DE3 pLysS (Ros). | column: Ki [µmol/L] *** / cf-Onc112

[6] = 25% MHBII containing IPTG (0.1 mmol/L)
[7] = 33% TSB containing IPTG (0.1 mmol/L)

CC[C@H](C)[C@H](NC(=O)[C@H](Cc1ccc(O)cc1)NC(=O)[C@@H](NC(=O)[C@@H]1CCCN1C(=O)[C@H](CCCNC(=N)N)NC(=O)[C@H](CC(N)=O)NC(=O)[C@H](CC(N)=O)NC(=O)[C@H](CCCN)N=C(N(C)C)N(C)C)C(C)C)C(=O)N1CCC[C@H]1C(=O)N[C@@H](CCCNC(=N)N)C(=O)N1CCC[C@H]1C(=O)N[C@@H](CCCNC(=N)N)C(=O)N1CCC[C@H]1C(=O)N1CCC[C@H]1C(=O)N[C@@H](Cc1c[nH]cn1)C(=O)N1CCC[C@H]1C(=O)N[C@@H](CCCNC(=N)N)C(=O)N[C@@H](CC(C)C)C(=O)O [Api137] ({Orn(α-tetramethylguanidino)}-NNRPVYIPRPRPPHPRL-OH)
MIC, 25% MHBII [1, 6]: 4 µg/mL (≈ 1.75 µM)
MIC, 33% TSB [1, 7]: 8 µg/mL (≈ 3.49 µM)
MIC, 25% MHBII [2, 6]: 8 µg/mL (≈ 3.49 µM)
MIC, 33% TSB [2, 7]: 8 µg/mL (≈ 3.49 µM)

CC[C@H](C)[C@H](NC(=O)[C@@H]1CCCN1C(=O)[C@H](CCCNC(=N)N)NC(=O)[C@H](CC(N)=O)NC(=O)[C@H](CC(N)=O)NC(=O)CN)C(=O)N[C@@H](Cc1ccc(O)cc1)C(=O)N[C@H](C(=O)N1CCC[C@H]1C(=O)N[C@@H](CCCNC(=N)N)C(=O)N1CCC[C@H]1C(=O)N[C@@H](CCCNC(=N)N)C(=O)N1CCC[C@H]1C(=O)N1CCC[C@H]1C(=O)N[C@@H](Cc1c[nH]cn1)C(=O)N1CCC[C@H]1C(=O)N[C@@H](CCCNC(=N)N)C(=O)N1CCC[C@H]1C(=O)N[C@H](C(=O)N[C@@H](CCCNC(=N)N)C(=O)N[C@H](C(=O)O)C(C)C)[C@@H](C)CC)[C@@H](C)CC [Api805] (H-GNNRPIYIPRPRPPHPRPIRV-OH; N-terminus assumed)
half-life time in lysate [3]: > 24 h
half-life (in vitro): > 1440 min

CC[C@H](C)[C@H](NC(=O)[C@H](Cc1ccc(O)cc1)NC(=O)[C@@H](NC(=O)[C@@H]1CCCN1C(=O)[C@H](CCCNC(=N)N)NC(=O)[C@H](CC(N)=O)NC(=O)[C@H](CC(N)=O)NC(=O)[C@H](CCCN)N=C(N(C)C)N(C)C)C(C)C)C(=O)N1CCC[C@H]1C(=O)N[C@@H](CCCNC(=N)N)C(=O)N1CCC[C@H]1C(=O)N[C@@H](CCCNC(=N)N)C(=O)N1CCC[C@H]1C(=O)N1CCC[C@H]1C(=O)N[C@@H](Cc1c[nH]cn1)C(=O)N1CCC[C@H]1C(=O)N[C@@H](CCCNC(=N)N)C(=O)N[C@@H](CC(C)C)C(N)=O [Api88] ({Orn(α-tetramethylguanidino)}-NNRPVYIPRPRPPHPRL-NH2)
inhibition of the binding of cf-labeled Api88 [4]: did not inhibit
Ki [5]: 110 nM
